From patent US20170100489A1, “POLYETHYLENE GLYCOL-MODIFIED INTEGRIN BLOCKER HM-3 AND USE THEREOF” (HANMEI XU, priority 2012, published 2017)
Like-named read-outs stand apart in the source and are kept apart here. Where a SMILES comes first, the peptide text is derived from it. Where no end group is shown, it is not given here. mPEG‑SC20k = methoxy polyethylene glycol-succinimidyl-carbonate, 20000 Da

Legend:
[1] = tested on: human pancreatic cancer SW-1990 xenograft tumors; test: Tumor growth inhibition, SW-1990 xenograft
Experimental: Picked the tumor tissue of vigorous growth and was cut into pieces of about 1.5 mm^3. Under sterile conditions, the tumor tissue was inoculated subcutaneously on the right of nude mice. Tumor diameter was measured with a Vernier caliper. The animals which had tumors with a size of 100-200 mm^3 were randomly divided into groups. The effect of polypeptide on anti-tumor was dynamically observed through the method of measuring tumor diameter. The times of measuring tumor diameter were once 2 days, and meantime, weighed mice. The mice in experimental group were infused polypeptide through tail vein, once 3 days. The mice in the placebo group were injected saline with the same volume.
(§1) a, b respectively represent the length and width. According to the result of measurement, calculate the relative tumor volume. Evaluation of antitumor activity is relative tumor proliferation rate T/C(%). The formula is as follows: T/C(%)^=TRTV/CRTV×100%
TRTV:Treatment group RTV; CRTV: negative control group RTV

[2] = tested on: human thyroid cancer SW-579 xenograft tumors; test: Tumor growth inhibition, SW-579 xenograft; settings: for Final weight / Rate of inhibiting tumors / Tumor weight: Once 1 day
Experimental: (§2) Picked the tumor tissue of vigorous growth and was cut into pieces of about 1.5 mm^3. Under sterile conditions, the tumor tissue was inoculated subcutaneously on the right of nude mice. Tumor diameter was measured with a vernier caliper. The animals which had tumors with a size of 100-200 mm^3 were randomly divided into groups. The effect of polypeptide on anti-tumor was dynamically observed through the method of measuring tumor diameter. The times of measuring tumor diameter were once 2 days, and meantime, weighed mice. The mice in experimental group were infused polypeptide through tail vein, once 3 days. The mice in the placebo group were injected saline with the same volume. Tumor volume formula:
as §1

[3] = tested on: human prostate cancer DU-145 xenograft tumors; test: Tumor growth inhibition, DU-145 xenograft
Experimental: Human prostate cancer DU-145 cell lines in logarithmic growth phase were picked, and made into 5×10^7/ml cell suspension of under sterile conditions, and then 0.1 ml suspension was inoculated subcutaneously at the right armpit of nude mice. Tumor diameter was measured with a vernier caliper. The animals which had tumors with a size of 100-200 mm^3 were randomly divided into groups. The effect of polypeptide on anti-tumor was dynamically observed through the method of measuring tumor diameter. The times of measuring tumor diameter were once 2 days, and meantime, weighed mice. The mice in experimental group were infused polypeptide through tail vein. The mice in the placebo group were injected saline with the same volume, once 1 day; Cisplatin group: 10 mg/kg, once 1 week; Endostar group: 2.5 mg/kg, once 1 day; The groups of high, intermediate and low polypeptide: 6, 3, 1.5 mg/kg, respectively, once 1 day. After administration, all mice were sacrificed. Stripped the tumors and weighed.

[4] = tested on: human nasopharyngeal cancer CNE xenograft tumors; test: Tumor growth inhibition, CNE xenograft
Experimental: as §2
a, b respectively represent the length and width. According to the result of measurement, calculate the relative tumor volume. Evaluation of antitumor activity is relative tumor proliferation rate T/C(%). The formula is as follows: T/C(%)^−TRTV/CRTV×100%

[5] = tested on: human ovarian cancer SK-OV-3 xenograft tumors; test: Tumor growth inhibition, SK-OV-3 xenograft
Experimental: Human ovarian cancer SK-OV-3 cell lines in logarithmic growth phase were picked, and made into 5×10^7/ml cell suspension of under sterile conditions, and then 0.1 ml suspension was inoculated subcutaneously at the right armpit of nude mice. Tumor diameter was measured with a vernier caliper. The animals which had tumors with a size of 100-200 mm^3 were randomly divided into groups. The effect of polypeptide on anti-tumor was dynamically observed through the method of measuring tumor diameter. The times of measuring tumor diameter were once 2 days, and meantime, weighed mice. The mice in experimental group were infused polypeptide through tail vein. The mice in the placebo group were injected saline with the same volume, once 1 day; Cisplatin group: 10 mg/kg, once 1 week; Endostar group: 2.5 mg/kg, once 1 day; The groups of high, intermediate and low polypeptide: 6, 3, 1.5 mg/kg, respectively, once 1 day. After administration, all mice were sacrificed. Stripped the tumors and weighed.

[6] = tested on: human testicular cancer 5637 xenograft tumors; test: Tumor growth inhibition, 5637 xenograft
Experimental: (§3) Human testicular cancer 5637 cell lines in logarithmic growth phase were picked, and made into 5×10^7/ml cell suspension of under sterile conditions, and then 0.1 ml suspension was inoculated subcutaneously at the right armpit of nude mice. Tumor diameter was measured with a vernier caliper. The animals which had tumors with a size of 100-200 mm^3 were randomly divided into groups. The effect of polypeptide on anti-tumor was dynamically observed through the method of measuring tumor diameter. The times of measuring tumor diameter were once 2 days, and meantime, weighed mice. The mice in experimental group were infused polypeptide through tail vein. […] After administration, all mice were sacrificed. Stripped the tumors and weighed.

[7] = tested on: sarcoma HT-1080 xenograft tumors; test: Tumor growth inhibition, HT-1080 xenograft
Experimental: Tumor diameter was measured with a vernier caliper. […] After administration, all mice were sacrificed. Stripped the tumors and weighed.

[8] = tested on: human endometrial cancer HHUA xenograft tumors; test: Tumor growth inhibition, HHUA xenograft
Experimental: Human endometrial cancer HHUA cell lines in logarithmic growth phase were picked, and made into 5×10^7/ml cell suspension of under sterile conditions, and then 0.1 ml suspension was inoculated subcutaneously at the right armpit of nude mice. Tumor diameter was measured with a vernier caliper. The animals which had tumors with a size of 100-200 mm^3 were randomly divided into groups. The effect of polypeptide on anti-tumor was dynamically observed through the method of measuring tumor diameter. The times of measuring tumor diameter were once 2 days, and meantime, weighed mice. The mice in experimental group were infused polypeptide through tail vein. The mice in the placebo group were injected saline with the same volume, once 1 day; Taxol group: 10 mg/kg, once 1 week; Endostar group: 2.5 mg/kg, once 1 day; The groups of high, intermediate and low polypeptide: 6, 3, 1.5 mg/kg, respectively, once 1 day. After administration, all mice were sacrificed. Stripped the tumors and weighed.

[9] = tested on: human esophageal cancer Ec109 xenograft tumors; format: in vivo, nude mice
Experimental: Tumor diameter was measured with a vernier caliper. […] Tumor volume formula: […]
a, b respectively represent the length and width. […] The formula is as follows: […]
TRTV: Treatment Group RTV; CRTV: Negative Control Group RTV

[10] = tested on: human breast cancer MDA-MB-231 xenograft tumors; test: Tumor growth inhibition, MDA-MB-231 xenograft
Experimental: Picked the tumor tissue of vigorous growth and was cut into pieces of about 1.5 mm^3. Under sterile conditions, the tumor tissue was inoculated subcutaneously on the right of nude mice. Tumor diameter was measured with a vernier caliper. The animals which had tumors with a size of 100-200 mm^3 were randomly divided into groups. The effect of polypeptide on anti-tumor was dynamically observed through the method of measuring tumor diameter. The times of measuring tumor diameter were once 2 days, and meantime, weighed mice. The mice in experimental group were infused polypeptide through tail vein, once 3 days. The mice in the placebo group were injected saline with the same volume. Tumor volume formula: TV=0.52×a×b^2
as §1
(§4) TRTV: Treatment group RTV; CRTV: negative control group RTV

[11] = Immunogenicity assay, antibody titers in serum by ELISA; settings: 3.0 mg/kg iv once a day, 8 weeks; FIG. 2
Experimental: BALB/c white mice were randomly divided into 2 groups, and the same number of male and female. 36 mg/kg mPEG-SC20k-HM-3 and 3.0 mg/kg HM-3 were administrated intravenously through tail vein, respectively, lasting 8 weeks, and collected blood from the orbital venous plexus once a week during 1-12 weeks. Centrifuged 2 min at 12000 rpm, collected the supernatant, and stored in the condition of −20° C. Dissolved at room temperature, 0.1 ml was used to measure antibody titers in serum by ELISA.
Administration: once a day, 6 rats (male, 3; female, 3)
Administration: once two days, 6 rats (male, 3; female, 3)

[12] = tested on: human gastric cancer MGC803 xenograft tumors; test: Tumor growth inhibition, MGC803 xenograft
Experimental: as §2, §1, §4

[13] = tested on: human cervical cancer HeLa xenograft tumors; test: Tumor growth inhibition, HeLa xenograft
Experimental: Human cervical cancer HeLa cell lines in logarithmic growth phase were picked, and made into 5×10^7/ml cell suspension of under sterile conditions, and then 0.1 ml suspension was inoculated subcutaneously at the right armpit of nude mice. Tumor diameter was measured with a vernier caliper. The animals which had tumors with a size of 100-200 mm^3 were randomly divided into groups. The effect of polypeptide on anti-tumor was dynamically observed through the method of measuring tumor diameter. The times of measuring tumor diameter were once 2 days, and meantime, weighed mice. The mice in experimental group were infused polypeptide through tail vein. The mice in the placebo group were injected saline with the same volume, once 1 day; Taxol group: 10 mg/kg, once 1 week; Endostar group: 2.5 mg/kg, once 1 day; The groups of high, intermediate and low polypeptide: 6, 3, 1.5 mg/kg, respectively, once 1 day. After administration, all mice were sacrificed. Stripped the tumors and weighed.

[14] = tested on: human colon cancer HT-29 xenograft tumors; test: Tumor growth inhibition, HT-29 xenograft
Experimental: Human colon cancer HT-29 cell lines in logarithmic growth phase were picked, and made into 5×10^7/ml cell suspension of under sterile conditions, and then 0.1 ml suspension was inoculated subcutaneously at the right armpit of nude mice. Tumor diameter was measured with a vernier caliper. The animals which had tumors with a size of 100-200 mm^3 were randomly divided into groups. The effect of polypeptide on anti-tumor was dynamically observed through the method of measuring tumor diameter. The times of measuring tumor diameter were once 2 days, and meantime, weighed mice. The mice in experimental group were infused polypeptide through tail vein. The mice in the placebo group were injected saline with the same volume, once 1 day; Taxol group: 10 mg/kg, once 1 week; Endostar group: 2.5 mg/kg, once 1 day; The groups of high, intermediate and low polypeptide: 6, 3, 1.5 mg/kg, respectively, once 1 day. After administration, all mice were sacrificed. Stripped the tumors and weighed.

[15] = tested on: human kidney cancer A498 xenograft tumors; test: Tumor growth inhibition, A498 xenograft
Experimental: Human kidney cancer A498 cell lines in logarithmic growth phase were picked and made into 5×10^7/ml cell suspension of under sterile conditions, and then 0.1 ml suspension was inoculated subcutaneously at the right armpit of nude mice. Tumor diameter was measured with a vernier caliper. The animals which had tumors with a size of 100-200 mm^3 were randomly divided into groups. The effect of polypeptide on anti-tumor was dynamically observed through the method of measuring tumor diameter. The times of measuring tumor diameter were once 2 days, and meantime, weighed mice. The mice in experimental group were infused polypeptide through tail vein. The mice in the placebo group were injected saline with the same volume, once 1 day; Taxol group: 10 mg/kg, once 1 week; Endostar group: 2.5 mg/kg, once 1 day; The groups of high, intermediate and low polypeptide: 6, 3, 1.5 mg/kg, respectively, once 1 day. After administration, all mice were sacrificed. Stripped the tumors and weighed.

[16] = tested on: human bladder cancer HT1376 xenograft tumors; test: Tumor growth inhibition, HT1376 xenograft
Experimental: Human bladder cancer HT1376 cell lines in logarithmic growth phase were picked, and made into 5×10^7/ml cell suspension of under sterile conditions, and then 0.1 ml suspension was inoculated subcutaneously at the right armpit of nude mice. Tumor diameter was measured with a vernier caliper. The animals which had tumors with a size of 100-200 mm^3 were randomly divided into groups. The effect of polypeptide on anti-tumor was dynamically observed through the method of measuring tumor diameter. The times of measuring tumor diameter were once 2 days, and meantime, weighed mice. The mice in experimental group were infused polypeptide through tail vein. The mice in the placebo group were injected saline with the same volume, once 1 day; Taxol group: 10 mg/kg, once 1 week; Endostar group: 2.5 mg/kg, once 1 day; The groups of high, intermediate and low polypeptide: 6, 3, 1.5 mg/kg, respectively, once 1 day. After administration, all mice were sacrificed. Stripped the tumors and weighed.

[17] = Pharmacokinetics of mPEG-SC20k-HM-3 and HM-3 in rats (plasma concentration by ELISA)
Experimental: SD rats were randomly divided into six groups with the same number for male and female. Take three groups were administered intravenously integrin antagonist polypeptide with a high dose of 52 mg/kg (equivalent to HM-3 4.2 mg/kg), an intermediate dose of 26 mg/kg (equivalent to HM-3 2.1 mg/kg), a low-dose of 13 mg/kg (equivalent to HM-3 1.05 mg/kg). The other 3 groups were injected HM-3 with a high dose of 4.2 mg/kg, an intermediate dose of 2.1 mg/kg, a low doses of 1.05 mg/kg. Collected whole blood 0.5 ml once from the orbital venous plexus after 0.5 h, 1 h, 2 h, 3 h, 6 h, 12 h, 24 h, 48 h, 72 h, 96 h, 108 h, 132 h of drug administration, and applied heparin to get the effect of anti-coagulation. 12000 rpm/2 min centrifuged plasma. Draw supernatant 200 μl and 80° C. preheated PBS (0.05 M pH7.4) buffer 600 μl and mixed. Bath in the 80° C. water for 30 min. Centrifuged 2 min at 12000 rpm, and collected the supernatant, and stored in the condition of −20° C. Dissolved at room temperature, measured integrin antagonist peptide plasma concentration by ELISA.

[18] = tested on: human cancer 5637 xenograft tumors; test: Tumor growth inhibition, 5637 xenograft
Experimental: as §3

[19] = tested on: human lung cancer H460 xenograft tumors; test: Tumor growth inhibition, H460 xenograft
Experimental: as §2, §1, §4

[20] = tested on: human gallbladder cancer GBC-SD xenograft tumors; test: Tumor growth inhibition, GBC-SD xenograft
Experimental: Human gallbladder cancer GBC-SD cell lines in logarithmic growth phase were picked and made into 5×10^7/ml cell suspension of under sterile conditions, and then 0.1 ml suspension was inoculated subcutaneously at the right armpit of nude mice. Tumor diameter was measured with a vernier caliper. The animals which had tumors with a size of 100-200 mm^3 were randomly divided into groups. The effect of polypeptide on anti-tumor was dynamically observed through the method of measuring tumor diameter. The times of measuring tumor diameter were once 2 days, and meantime, weighed mice. The mice in experimental group were infused polypeptide through tail vein. The mice in the placebo group were injected saline with the same volume, once 1 day; Taxol group: 10 mg/kg, once 1 week; Endostar group: 2.5 mg/kg, once 1 day; The groups of high, intermediate and low polypeptide: 6, 3, 1.5 mg/kg, respectively, once 1 day. After administration, all mice were sacrificed. Stripped the tumors and weighed.

integrin α5β1 = molecular target: T1, integrin α5β1 (human, UniProt P08648 42-1049; P05556 21-798); test: flow cytometry, FITC-labeled peptide on Bel-7402 and MCF-7 cells pre-incubated with function-blocking anti-integrin antibodies
T1 construct: whole, on cells; Endogenous integrin on Bel-7402 and MCF-7 cells; also called alpha 5 beta 1

integrin ανβ3 = molecular target: T2, integrin ανβ3 (human, UniProt P06756 31-1048; P05106 27-788); test: as above
T2 construct: whole, on cells; Endogenous integrin on Bel-7402 and MCF-7 cells; also called alpha v beta 3
T2 sequence (P06756 31-1048, chain 1 of 2): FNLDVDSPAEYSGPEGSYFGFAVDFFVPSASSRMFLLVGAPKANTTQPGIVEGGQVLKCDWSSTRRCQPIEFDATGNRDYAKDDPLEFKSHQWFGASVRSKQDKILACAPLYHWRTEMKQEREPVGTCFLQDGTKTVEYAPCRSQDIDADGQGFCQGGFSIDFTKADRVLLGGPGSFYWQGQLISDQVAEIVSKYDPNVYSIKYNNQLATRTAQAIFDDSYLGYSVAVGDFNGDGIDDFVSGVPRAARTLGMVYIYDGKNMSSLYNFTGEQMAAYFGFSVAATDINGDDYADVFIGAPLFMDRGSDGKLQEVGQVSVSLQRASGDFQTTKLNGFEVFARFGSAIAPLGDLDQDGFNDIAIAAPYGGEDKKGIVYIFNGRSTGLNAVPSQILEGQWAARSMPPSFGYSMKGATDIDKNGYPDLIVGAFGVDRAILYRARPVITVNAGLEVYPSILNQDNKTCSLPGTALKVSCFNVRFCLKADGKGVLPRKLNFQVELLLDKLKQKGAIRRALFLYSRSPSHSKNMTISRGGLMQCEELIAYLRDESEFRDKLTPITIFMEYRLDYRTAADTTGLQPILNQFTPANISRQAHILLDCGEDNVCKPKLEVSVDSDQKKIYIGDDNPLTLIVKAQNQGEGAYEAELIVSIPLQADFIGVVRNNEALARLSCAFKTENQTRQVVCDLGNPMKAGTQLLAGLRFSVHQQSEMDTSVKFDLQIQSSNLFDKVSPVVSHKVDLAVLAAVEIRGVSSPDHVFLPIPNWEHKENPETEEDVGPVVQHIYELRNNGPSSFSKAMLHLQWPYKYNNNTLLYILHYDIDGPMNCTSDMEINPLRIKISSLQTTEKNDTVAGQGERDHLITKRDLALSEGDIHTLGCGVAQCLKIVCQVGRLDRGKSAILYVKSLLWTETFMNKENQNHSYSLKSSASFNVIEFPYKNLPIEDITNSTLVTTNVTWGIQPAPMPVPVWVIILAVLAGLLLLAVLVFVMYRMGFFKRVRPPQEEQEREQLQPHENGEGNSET
T2 sequence (P05106 27-788, chain 2 of 2): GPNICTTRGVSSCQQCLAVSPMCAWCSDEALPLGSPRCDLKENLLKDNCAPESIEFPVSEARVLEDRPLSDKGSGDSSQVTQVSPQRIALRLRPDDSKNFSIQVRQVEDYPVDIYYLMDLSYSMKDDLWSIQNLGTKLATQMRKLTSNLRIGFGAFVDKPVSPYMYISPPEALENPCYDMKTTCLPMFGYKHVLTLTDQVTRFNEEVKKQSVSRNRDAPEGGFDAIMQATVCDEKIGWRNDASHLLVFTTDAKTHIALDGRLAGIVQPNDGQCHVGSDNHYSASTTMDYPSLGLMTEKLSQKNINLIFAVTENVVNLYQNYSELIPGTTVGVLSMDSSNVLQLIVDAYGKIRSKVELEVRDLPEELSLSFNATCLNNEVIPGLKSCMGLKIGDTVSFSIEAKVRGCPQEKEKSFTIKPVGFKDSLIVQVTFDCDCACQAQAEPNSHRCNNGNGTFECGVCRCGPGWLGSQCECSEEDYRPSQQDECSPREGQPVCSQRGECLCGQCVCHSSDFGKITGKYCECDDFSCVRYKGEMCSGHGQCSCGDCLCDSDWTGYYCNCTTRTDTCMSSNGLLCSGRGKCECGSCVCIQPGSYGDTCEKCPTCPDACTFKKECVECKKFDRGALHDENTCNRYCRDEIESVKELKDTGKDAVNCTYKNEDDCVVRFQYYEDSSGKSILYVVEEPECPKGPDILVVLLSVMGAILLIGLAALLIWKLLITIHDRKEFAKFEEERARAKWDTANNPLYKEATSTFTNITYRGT

T1 sequence (P08648 42-1049, chain 1 of 2): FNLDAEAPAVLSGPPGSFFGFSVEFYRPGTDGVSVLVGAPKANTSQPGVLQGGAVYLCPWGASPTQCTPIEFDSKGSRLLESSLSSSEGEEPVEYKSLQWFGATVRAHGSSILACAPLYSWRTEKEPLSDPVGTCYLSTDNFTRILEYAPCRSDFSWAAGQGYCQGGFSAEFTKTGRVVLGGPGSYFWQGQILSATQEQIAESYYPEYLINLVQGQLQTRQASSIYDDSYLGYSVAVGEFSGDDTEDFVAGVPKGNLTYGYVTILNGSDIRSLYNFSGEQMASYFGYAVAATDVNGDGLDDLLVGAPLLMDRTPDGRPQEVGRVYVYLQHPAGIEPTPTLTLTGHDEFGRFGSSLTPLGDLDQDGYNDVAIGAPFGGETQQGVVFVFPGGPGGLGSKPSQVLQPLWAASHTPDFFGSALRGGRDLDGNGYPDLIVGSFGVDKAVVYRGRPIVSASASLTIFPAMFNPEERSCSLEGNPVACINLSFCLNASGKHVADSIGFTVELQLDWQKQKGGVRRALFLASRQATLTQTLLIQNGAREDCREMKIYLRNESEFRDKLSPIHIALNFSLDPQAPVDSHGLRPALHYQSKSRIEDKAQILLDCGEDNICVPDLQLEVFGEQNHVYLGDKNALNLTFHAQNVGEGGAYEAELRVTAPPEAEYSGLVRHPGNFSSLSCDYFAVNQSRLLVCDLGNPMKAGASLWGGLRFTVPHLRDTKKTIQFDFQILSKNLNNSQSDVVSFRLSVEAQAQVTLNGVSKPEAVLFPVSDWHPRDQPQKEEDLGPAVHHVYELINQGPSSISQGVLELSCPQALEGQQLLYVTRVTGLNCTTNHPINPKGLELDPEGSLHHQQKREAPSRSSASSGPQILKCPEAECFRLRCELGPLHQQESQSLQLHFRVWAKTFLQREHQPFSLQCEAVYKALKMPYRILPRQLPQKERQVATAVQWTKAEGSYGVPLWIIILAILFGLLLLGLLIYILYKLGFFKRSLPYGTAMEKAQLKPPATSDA
T1 sequence (P05556 21-798, chain 2 of 2): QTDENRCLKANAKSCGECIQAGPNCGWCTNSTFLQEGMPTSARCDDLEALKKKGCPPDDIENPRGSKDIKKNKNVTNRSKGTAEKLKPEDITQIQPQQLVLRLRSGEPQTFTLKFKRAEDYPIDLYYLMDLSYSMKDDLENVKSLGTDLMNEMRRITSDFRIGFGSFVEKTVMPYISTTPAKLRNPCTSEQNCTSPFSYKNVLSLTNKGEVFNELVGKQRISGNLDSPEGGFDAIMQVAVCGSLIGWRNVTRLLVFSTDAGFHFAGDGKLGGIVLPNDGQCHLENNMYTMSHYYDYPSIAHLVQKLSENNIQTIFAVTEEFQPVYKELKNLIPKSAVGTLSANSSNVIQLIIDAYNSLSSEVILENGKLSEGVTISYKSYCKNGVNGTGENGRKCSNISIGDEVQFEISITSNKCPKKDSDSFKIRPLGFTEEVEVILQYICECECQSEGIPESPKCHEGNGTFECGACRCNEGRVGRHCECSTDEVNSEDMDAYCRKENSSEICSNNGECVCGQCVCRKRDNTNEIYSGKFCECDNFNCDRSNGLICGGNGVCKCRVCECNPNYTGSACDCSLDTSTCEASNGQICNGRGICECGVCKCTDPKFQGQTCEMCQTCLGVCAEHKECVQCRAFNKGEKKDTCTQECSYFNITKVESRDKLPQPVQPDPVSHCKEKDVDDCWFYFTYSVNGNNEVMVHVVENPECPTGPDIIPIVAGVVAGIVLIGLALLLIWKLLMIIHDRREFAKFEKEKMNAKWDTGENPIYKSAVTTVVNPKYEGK

## O=c1[nH]cc(F)c(=O)[nH]1 [5-Fu, reference compound]
[1]; 10 mg/kg, Once 1 day
  Final weight: 22.43 g
  Rate of inhibiting tumors: 76.68%
  Tumor weight: 0.323 g
[2]; 10 mg/kg
  toxicity in experimental animals: greater toxicity and leads to the weight loss and death
  Final weight: 21.32 g
  Rate of inhibiting tumors: 74.50%
  Tumor weight: 0.320 g

## N.N.[Cl][Pt][Cl] [Cisplatin, reference compound]
[3]; 10 mg/kg, Twice a week
  Rate of inhibiting tumors: 70.60%
[4]; 10 mg/kg
  influence on the weight of experimental animals: significantly affects the weight
[4]; 10 mg/kg, Twice 1 week
  Final weight: 22.33 g
  Rate of inhibiting tumors: 73.36%
  Tumor weight: 0.320 g
[5]; 10 mg/kg, Twice 1 week
  Final weight: 22.19 g
  Rate of inhibiting tumors: 76.13%
  Tumor weight: 0.302 g
[6]; 10 mg/kg, Twice 1 week
  Rate of inhibiting tumors: 70.74%

## O=P1(N(CCCl)CCCl)NCCCO1 (stereo not drawn) [Cyclophosphamide]
[7]; 15 mg/kg, Once 2 days
  Final weight: 23.85 g
  Rate of inhibiting tumors: 74.15%
  Tumor weight: 0.501 g

## CC[C@H](C)[C@H](N)C(=O)N[C@H](C(=O)N[C@@H](CCCNC(=N)N)C(=O)N[C@@H](CCCNC(=N)N)C(=O)N[C@@H](C)C(=O)N[C@@H](CC(=O)O)C(=O)N[C@@H](CCCNC(=N)N)C(=O)N[C@@H](C)C(=O)N[C@@H](C)C(=O)N[C@H](C(=O)N1CCC[C@H]1C(=O)NCC(=O)NCC(=O)NCC(=O)NCC(=O)N[C@@H](CCCNC(=N)N)C(=O)NCC(=O)N[C@@H](CC(=O)O)C(=O)O)C(C)C)C(C)C [HM-3, Ile-Val-Arg-Arg-Ala-Asp-Arg-Ala-Ala-Val-Pro-Gly-Gly-Gly-Gly-Arg-Gly-Asp] (H-IVRRADRAAVPGGGGRGD-OH; N-terminus assumed)
[8]; 1.5 mg/kg, Once 3 days
  Final weight: 22.85 g
  Rate of inhibiting tumors: 54.49%
  Tumor weight: 0.550 g
[1]; 1.5 mg/kg, Once 3 days
  Final weight: 23.10 g
  Rate of inhibiting tumors: 57.94%
  Tumor weight: 0.582 g
[9]; 1.5 mg/kg, Once 3 days
  Rate of inhibiting tumors: 60.57%
  Tumor weight: 0.365 g
[10]; 1.5 mg/kg, Once 3 days
  Final weight: 23.54 g
  Rate of inhibiting tumors: 57.14%
  Tumor weight: 0.533 g
[11]
  time of administration at which antibody appeared: third week
[12]; 1.5 mg/kg, Once 3 days
  Final weight: 22.37 g
  Rate of inhibiting tumors: 70.40%
  Tumor weight: 0.214 g
[13]; 1.5 mg/kg, Once 3 days
  Final weight: 23.86 g
  Rate of inhibiting tumors: 57.25%
  Tumor weight: 0.528 g
[3]; 1.5 mg/kg, Once 3 days
  Final weight: 23.64 g
  Rate of inhibiting tumors: 56.36%
  Tumor weight: 0.809 g
[4]; 1.5 mg/kg, Once 3 days
  Final weight: 22.85 g
  Rate of inhibiting tumors: 61.03%
  Tumor weight: 0.468 g
[14]; 1.5 mg/kg, Once 3 days
  Final weight: 23.15 g
  Rate of inhibiting tumors: 52.59%
  Tumor weight: 0.531 g
[15]; 1.5 mg/kg, Once 3 days
  Final weight: 20.88 g
  Rate of inhibiting tumors: 54.77%
  Tumor weight: 0.427 g
[7]; 1.5 mg/kg, Once 3 days
  Rate of inhibiting tumors: 59.24%
  Tumor weight: 0.790 g
[16]; 1.5 mg/kg, Once 3 days
  Final weight: 22.30 g
  Rate of inhibiting tumors: 50.49%
  Tumor weight: 0.504 g
[17]; SD rats, intravenous
  AUC0-∞: 25.63 mg/L/h
  t1/2p: 27.66 min
  t1/2β: 27.6 min
[17]; both, SD, rat, plasma, iv
  clearance: 23 mL/min/kg
  half-life: 27.6 min
[17]; both, SD, rat, plasma, iv, MRT0-∞, SD rats
  MRT inf: 2.16 min
[5]; 1.5 mg/kg, Once 3 days
  Rate of inhibiting tumors: 49.49%
  Tumor weight: 0.639 g
[2]; 1.5 mg/kg
  Final weight: 22.70 g
  Rate of inhibiting tumors: 57.70%
  Tumor weight: 0.530 g
[18]; 1.5 mg/kg, Once 3 days
  Final weight: 25.15 g
[6]; 1.5 mg/kg, Once 3 days
  Rate of inhibiting tumors: 59.40%
  Tumor weight: 0.82 g
[19]; 1.5 mg/kg, Once 3 days
  Final weight: 21.11 g
  Rate of inhibiting tumors: 65.42%
  Tumor weight: 0.274 g
[20]; 1.5 mg/kg, Once 3 days
  Final weight: 20.92 g
  Rate of inhibiting tumors: 57.59%
  Tumor weight: 0.450 g

## CC(=O)O[C@H]1C(=O)[C@@]2(C)[C@H]([C@H](OC(=O)c3ccccc3)[C@]3(O)C[C@H](OC(=O)[C@H](O)[C@@H](NC(=O)c4ccccc4)c4ccccc4)C(C)=C1C3(C)C)[C@]1(OC(C)=O)CO[C@@H]1C[C@@H]2O [Taxol, reference compound]
[8]; 10 mg/kg, Twicw 1 week
  Final weight: 22.19 g
  Rate of inhibiting tumors: 75.55%
  Tumor weight: 0.295 g
[9]; 10 mg/kg, Once 2 days
  Rate of inhibiting tumors: 70.19%
  Tumor weight: 0.276 g
[10]; 10 mg/kg, Once 2 days
  Final weight: 23.32 g
  Rate of inhibiting tumors: 73.05%
  Tumor weight: 0.335 g
[12]; 10 mg/kg, Once 2 days
  Final weight: 22.05 g
  Rate of inhibiting tumors: 74.12%
  Tumor weight: 0.187 g
[13]; 10 mg/kg, Once 2 days
  Final weight: 23.47 g
  Rate of inhibiting tumors: 65.37%
  Tumor weight: 0.428 g
[3]; 10 mg/kg, Twice a week
  Final weight: 23.81 g
  Rate of inhibiting tumors: 70.60%
  Tumor weight: 0.545 g
[14]; 10 mg/kg, Once 2 days
  Final weight: 22.84 g
  Rate of inhibiting tumors: 69.11%
  Tumor weight: 0.346 g
[15]; 10 mg/kg, Once 2 days
  Final weight: 21.15 g
  Rate of inhibiting tumors: 74.32%
  Tumor weight: 0.242 g
[16]; 10 mg/kg, Once 2 days
  Final weight: 21.65 g
  Rate of inhibiting tumors: 67.88%
  Tumor weight: 0.327 g
[18]; 10 mg/kg, Twice 1 week
  Final weight: 24.46 g
[6]; 10 mg/kg, Twice 1 week
  Rate of inhibiting tumors: 70.74%
  Tumor weight: 0.590 g
[19]; 10 mg/kg, Once 2 days
  Final weight: 19.58 g
  Rate of inhibiting tumors: 68.77%
  Tumor weight: 0.248 g
[20]; 10 mg/kg, Once 2 days
  Final weight: 20.43 g
  Rate of inhibiting tumors: 78.13%
  Tumor weight: 0.232 g

B1: mPEG-SC20k-Ile-Val-Arg-Arg-Ala-Asp-Arg-Ala-Ala-Val-Pro-Gly-Gly-Gly-Gly-Arg-Gly-Asp (mPEG-SC20k-HM-3) (peptide)
peptide: {mPEG‑SC20k}-IVRRADRAAVPGGGGRGD
modifications: also: FITC labeled, site not given here
notes: also called integrin antagonist polypeptide
Integrin α5β1
  binding result: binds
Integrin ανβ3
  binding result: binds
